Measured values from BindingDB's records for doi:10.7270/Q2J964TC (Burnham Center for Chemical Genomics, 2010).

Target: T1, Mannose-6-phosphate isomerase (Homo sapiens, UniProt P34949)
T1 sequence (P34949 whole entry): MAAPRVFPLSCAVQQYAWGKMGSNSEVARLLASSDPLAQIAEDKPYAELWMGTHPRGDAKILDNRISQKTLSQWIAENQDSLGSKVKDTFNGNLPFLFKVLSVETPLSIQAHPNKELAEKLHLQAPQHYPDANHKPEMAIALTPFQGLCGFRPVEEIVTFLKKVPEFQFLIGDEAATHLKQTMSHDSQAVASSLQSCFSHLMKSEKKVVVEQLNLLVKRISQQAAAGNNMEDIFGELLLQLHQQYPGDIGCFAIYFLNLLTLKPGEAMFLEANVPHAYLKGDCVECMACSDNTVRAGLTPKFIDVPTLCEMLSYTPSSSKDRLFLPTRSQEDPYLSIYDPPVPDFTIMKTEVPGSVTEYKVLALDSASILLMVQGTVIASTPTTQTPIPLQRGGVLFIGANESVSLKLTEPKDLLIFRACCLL
Assay: phosphomannose isomerase inhibition – biochemical, fluorescence intensity, confirmation (AID 1535)

Oc1c(-c2ccccc2)sc2ccccc12 [2-phenyl-1-benzothiophen-3-one]
IC50: > 100 µM
